In a melting point compilation (Tetko et al.; mined from patent text by program, amines drawn as free bases though some values may be those of a salt) one finds melting point data, which are given here for 89 molecules.

The structures appear in SMILES notation. Some results are limits rather than exact numbers.

The term melting point denotes the temperature, or range, at which the solid turns liquid.

The molecule `Cc1nnc2n1-c1ccc(C#CCN3C(=O)CN(C)C(=O)c4ccccc43)cc1C(c1ccccc1F)=NC2` gave a melting point of 179 to 182 °C.
For `Cc1nc(-c2cccc(C(=O)N[C@H]3CC[C@H](CCN4CCN(c5nccc6c5CCO6)CC4)CC3)c2)no1`, the melting point came to 218 °C.
The result for `COC(=O)Cc1c(NC(C)=O)n(C)c2ccccc12` reads 126 to 128 °C.
To `COc1ccc(N)c(SSc2cc(OC)ccc2N)c1` belongs 78 to 80 °C; to `COc1ccc(CNc2nc(C)c(-c3ccncc3)s2)cc1OC`, 134 to 135 °C; to `CCOC(=O)C1=C(C)NC(C)=C(C(=O)OCCOC)C1c1cccc(Cl)c1Cl` (centres undefined), 139 °C.
Turning to `CN(C)C(=N[N+](=O)[O-])N(Cc1cnc(Cl)s1)C(=S)Oc1ccccc1`, the melting point lay within 161 to 162 °C.
`CCCCCS(=O)(=O)NC(=O)/C=C/c1ccc(OCCC2(C)OCCO2)cc1Oc1ncc(C(F)(F)F)cc1Cl` gave a melting point of 90 to 92 °C.
`O=C(Nc1ccc(C(F)(F)F)cc1)N1CC(c2ccccc2)C(c2ccc(Cl)cc2)N1` (centres undefined) returned a melting point of 212 to 214 °C.
As to `CCSc1ccc(Oc2ccc(C(=O)c3ccccc3)cc2)nc1C#N`, the melting point lay within 88 to 90 °C.
Molecule `CC(C)(C(=O)O)C1(c2ccc(Cl)cc2)CCC1` displayed a melting point of 95 to 110 °C.
Molecule `Cc1cc(C(=O)C(=O)c2ccc(OC(F)F)cc2)ccc1F` had a melting point of 77 to 78 °C.
The result for `O=C(N1CCOCC1)N1Cc2c(-c3nc4ccccc4o3)ncn2-c2ccccc21` reads 288 to 290 °C; that for `CCCNC(=O)Oc1ccc2c(ccn2N(CCC)c2ccncc2)c1`, 120 to 122 °C; that for `C#CC[C@@H](NCCCN1C(=O)c2ccccc2C1=O)c1nc2cc(Cl)ccc2c(=O)n1Nc1ccccc1`, 78 to 80 °C.
To `CCOC(=O)c1cc2c(nc(C)n2C)c2c1CCC(OC)(c1ccccc1)O2` (centres undefined) belongs 176 to 178 °C; to `CCc1cc(Cl)cc2[nH]c(=O)c(-c3ccccc3)c(O)c12`, 284 to 288 °C.
In the case of `CCc1scc2c1CN(S(=O)(=O)c1ccc(C)cc1)C2`, the melting point fell in the range of 117 to 120 °C.
The result for `O=C1CCC(N2C(=O)c3cccc(Nc4ccccc4)c3C2=O)C(=O)N1` (centres undefined) reads 214 to 216 °C; that for `CC(=O)OCC(=O)Nc1nc2c(Oc3cc(-c4ccc(C(F)(F)F)cc4)ncn3)cccc2s1`, 119 to 138 °C; that for `CC(C)OCCn1c(C2CCN(CCc3ccc(C(C)(C)C)cc3)CC2)nc2ccccc21`, 115 to 117 °C.
To `CCC1(CCCCCl)C(=O)Nc2ccccc21` (centres undefined) belongs 104 to 105 °C; to `CCCCCCCCC(=O)Nc1cc(C)c(O)c(C)c1`, 100 to 101 °C; to `COC(=O)NC1=NCC(c2cc(Cl)ccc2Cl)CN1` (centres undefined), 231 to 234 °C.
The result for `Cc1nc(N(C)N)[nH]c(=O)c1CCO` reads 180 °C.
Molecule `COc1c(Cl)ccnc1CSc1nc2cc(OC(F)F)ccc2[nH]1` came in with a melting point of 94 to 99 °C.
The result for `COC(=O)c1cc(O)cc2cc(-c3ccc(O)cc3)oc12` reads 236 to 238 °C; that for `CCCc1noc(-c2ccc(N3CCN(C(=O)c4ccccc4C(F)(F)F)CC3)nn2)n1`, 226 °C; that for `O=C1N(N2CCCCC2)c2ccccc2C1(Cc1ccncc1)c1ccccc1` (centres undefined), 128 to 131 °C.
The result for `O=C1C=C(c2c[nH]c3ccc(Br)cc23)C(=O)N1` reads 268 °C; that for `OC/C=C/c1ccc(O)c(OCc2ccccc2)c1`, 99 to 101 °C; that for `Cc1c(Cl)nn2cc(-c3ccc(F)cc3)nc2c1C`, 172 to 174 °C.
The result for `CSc1ccc(-c2coc3ccc(-c4nnc(C)o4)cc23)cc1F` reads 179 to 180 °C; that for `Cc1cc([N+](=O)[O-])sc1C(=O)c1sc(Nc2ccc(S(N)(=O)=O)cc2)nc1N`, 268 to 269 °C.
`O=C(Nc1ccn[nH]1)c1cccnc1Cl`: the melting point was determined as 163 °C.
To `O=C(CO)Nc1ccccc1-c1nnc(C(c2ccc(Cl)cc2)c2c(Cl)cc(-n3ncc(=O)[nH]c3=O)cc2Cl)o1` (centres undefined) belongs 235 °C; to `NC(=O)C(c1ccc(Cl)cc1)c1ncc(C(F)(F)F)cc1Cl` (centres undefined), 135 to 136 °C.
The molecule `Cc1ccc(N2CCN3C(=O)CCC3C2=O)cc1` (centres undefined) returned a melting point of 115 to 117 °C.
To `Cc1ccc(S(=O)(=O)CNc2ccc(C(F)(F)F)cc2)cc1` belongs 135 °C; to `O=C(O)c1cccc2c1S(=O)(=O)c1ccccc1C2=O`, 237 °C; to `O=S(=O)(NC1CCC(O)CC1)c1ccc(Cl)cc1` (centres undefined), 138 to 142 °C.
`CSc1nc(-c2ccncc2)n(-c2ccc(C(C)C)cc2)c(=O)c1C#N`: the melting point is 173 to 175 °C.
`Cc1ccc(C2(O)C(c3ccccc3)SC3=NCCCCN32)s1` (centres undefined) yielded a melting point of 70 to 90 °C.
The result for `CNC(=O)C1CC(=O)c2nc(C)n(C)c2C1` (centres undefined) reads 194 to 196 °C; that for `O=C(c1ccccc1)N1CCc2[nH]c3cccc(CCCO)c3c2CC1`, 144 to 147 °C.
To `CC1(c2ccc([N+](=O)[O-])cc2)C(=O)Nc2cc(Cl)ccc2C1=O` (centres undefined) belongs 209 to 210 °C.
`O=c1nc(-c2ccc(-c3ccccc3)cc2)sc2ccccc12` showed a melting point of 170 to 171 °C.
The result for `NC(=O)c1[nH]nc([C@@H]2O[C@H](CO)[C@@H](O)[C@H]2O)c1O` reads 112 to 115 °C; that for `Cc1ccc(I(Cl)Cl)c([N+](=O)[O-])c1`, 50 to 52 °C; that for `CC(Oc1ccc(Oc2ccc(C(F)(F)F)cn2)cc1)C(=O)N1CCCO1` (centres undefined), 83 to 85 °C.
To `CC(C)(C)OC(=O)N1CCN(c2ccc(O)c(C=O)c2)CC1` belongs 84 to 86 °C; to `CCC(=O)NC1=NN(c2nc3ccccc3s2)C(c2ccc(C)cc2)C1` (centres undefined), 208 to 209 °C; to `O=C(CCCCCCCNC(=O)c1cn2c3c(cccc13)CCC2)NO`, 174 to 176 °C.
The result for `COCCCNC(=O)c1cc(C(=O)OC)c(O)c2ncc(Cc3ccc(F)cc3)cc12` reads 166 to 167 °C; that for `CCCCNC(=O)Cc1cc(=O)oc2cc(OCc3cccc(Cl)c3)ccc12`, 112 to 113 °C; that for `CN1CCC(OC2c3ccccc3CCn3c2nc(-c2ccccc2)c3C=O)CC1` (centres undefined), 70 °C.
`Cc1ncc(-c2ccccc2)c(C(=O)N(C)Cc2cc(C(F)(F)F)cc(C(F)(F)F)c2)n1`: the melting point is 149 to 152 °C.
To `COc1ccc(-c2nc(CCOc3ccc(CC4OC(=O)NC4=O)cc3)c(C)o2)cc1` (centres undefined) belongs 141 to 143 °C; to `O=C(OCC(O)CO)c1ccc(C=Cc2csc3ccccc23)s1` (centres undefined), 102 to 104 °C; to `O=C(O)CC1Cc2ccccc2C1`, 85 to 88 °C.
To `CC(C)(C)c1nc(Nc2nc(C(=O)O)cs2)nc(C(C)(C)C)c1O` belongs 251 to 253 °C; to `CC1(C)Cc2c(N)ccc(O)c2O1`, 194 °C; to `CCC(C)(COc1nn2nc(C)nc2cc1C)CS(N)(=O)=O` (centres undefined), 194 to 195 °C.
`CN1C(=O)C2(COc3cc4c(cc32)OCCO4)c2c(NC(=O)c3ccccc3C(F)(F)F)cccc21` (centres undefined) came in with a melting point of 241 to 243 °C.
The result for `CCOC(=O)c1ccc(-c2cccc(CN)n2)cc1` reads 141 to 143 °C.
`CC1=C(/C=C/C(C)=C/CO)C(C)(C)CC(O)C1=O` (centres undefined) displayed a melting point of 85 to 86 °C.
Molecule `O=C1N(Cc2cccnc2)c2ccccc2C12COc1ccc3nonc3c12` (centres undefined) yielded a melting point of 230 to 232 °C.
For `CC(C)(C)OC(=O)C(CCCCNC(=O)OCc1ccccc1)NC(=O)C(F)(F)F` (centres undefined), the melting point lay within 77 to 79 °C.
`CC(C)NC(=O)C1c2cc(NC(=O)c3cc(C(F)(F)F)nn3-c3ncccc3Cl)c(Cl)cc2CC1O` (centres undefined) registered a melting point of 204 to 205 °C.
The result for `CCc1cccc2nc(C(=O)OC)c(C(=O)OC)c(O)c12` reads 111 to 114 °C.
Regarding `CSc1nnc(C(F)F)s1`, the melting point came to 23 °C.
To `CCCn1c(=O)c2[nH]c(C3CCCC3)nc2n(CCc2ccc(NC(=O)C3CCCC3)cc2)c1=O` belongs more than 270 °C.
As for `Cc1nc2scc(-c3ccc(F)cc3)n2c(=O)c1CCN1CCC(c2noc3cc(F)ccc23)CC1`, the melting point fell in the range of 119 to 122 °C.
The result for `CC(=O)NCC1CCC(C(=O)N2CC2C#N)CC1` (centres undefined) reads 92 to 94 °C.
As to `CCOC(=O)c1ccccc1CCC(=O)Nc1cccc(/C=C/c2nc(C3CCC3)cs2)c1`, the melting point lay within 110 to 111 °C.
The result for `CC(C)c1nc(CO)n(Cc2cnc3ccccc3c2)c1Sc1cc(Cl)cc(Cl)c1` reads 167 to 170 °C; that for `COc1ccnc(C(C)O)c1` (single isomer, unassigned; (+)), 92 °C.
To `O=c1[nH]cnc2ccc(F)cc12` belongs 252 to 255 °C.
`OC1CCCCCC/C1=C\Br` (centres undefined): the melting point was 144 to 145 °C.
To `CS(=O)(=O)C(=C1CN(C(c2ccccc2)c2ccccc2)C1)c1cc(F)ccc1F` belongs 176 °C; to `c1cnc2ccc(Cn3nnc4ccc(-c5ccc(N6CCOCC6)nc5)nc43)cc2c1`, 183 to 185 °C.
For `COC(=O)c1ccc(N(N)C(=O)c2ccc(Cl)c(S(N)(=O)=O)c2)c([N+](=O)[O-])c1`, the melting point lay within 144 to 147 °C.
With `Nc1nc(=O)n(C(=O)OCc2ccccc2)cc1F`, the melting point was 212 to 215 °C.
To `CCCCSC(=O)NC(=O)C(c1ccccc1)c1ccccc1` belongs 99 °C; to `O=Cc1ncn2cc(Br)sc12`, 200 to 201 °C; to `CCc1nn(CCO)c(CC)c1Oc1cc(C#N)cc(-n2cncn2)c1`, 122 to 124 °C.
To `O=C1Cn2ccnc2-c2c(Br)cccc2N1` belongs 234 to 235 °C.
To `O=c1[nH]c2ccc(Br)cc2n1Cc1ccccc1` belongs 245 to 246 °C; to `CN(CCOc1ccc(C(N)=O)cc1)CCc1ccc(NS(C)(=O)=O)cc1`, 147 °C.
